# Patent US20250074911A1, “MACROCYCLIC BTK INHIBITORS” (Crossfire Oncology Holding B.V., priority 2021, published 2025)
# Values joined by “and” are separate entries in the source; they are usually repeats but may differ in a detail not shown here. Identical values can stand only once.
# Assays:
# [1] = system: wt-REC-1 mantle cell lymphoma cells; assay: Cell proliferation assay wt-REC-1 (ATPlite, 72 hours); format: cell-based; details: 72 h; read-out: IC50 wt-REC-1
# Procedure, shortened: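 Luminescent viability read over 72 h, start-of-incubation signal recorded separately to separate growth from cell death. Percentage growth referenced to compound-free 0.3% DMSO wells; IC50 from 4-parameter logistic fit.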
# [2] = system: wt-TMD8 diffuse large B-cell lymphoma cells; assay: Cell proliferation assay wt-TMD8 (ATPlite, 120 hours); format: cell-based; details: B-cell; wt-TMD8 cells, 120 hours, ATPlite; read-out: IC50 wt-TMD8
# Procedure, shortened: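 wt-TMD8 DLBCL cells, 1600 per well in RPMI-1640 with 10% FBS, rested ≥5 h then exposed to compound for 120 h at 37° C, 5% CO2. Viability read by ATPlite luminescence; percentage growth calculated relative to start-of-incubation signal and untreated 0.3% DMSO maximum growth.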
# REC-1 T474I cell lines = assay: Cell proliferation assay REC-1 BTK T474I knock-in cells (ATPlite, 72 hours); format: cell-based; details: Homo sapiens, Rec1; 72 hours; read-out: IC50 REC-1 T474I
# Procedure, shortened: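 REC-1 cells carrying CRISPR knock-in mutant BTK, single-cell cloned and sequence-confirmed, were exposed to compound for 72 h and read by ATPlite luminescence. Percentage growth was calculated against the signal at the start of incubation and against untreated 0.3% DMSO wells as maximum growth.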
# wt-BTK = wt-BTK (Homo sapiens (Human), UniProt Q06187); assay: Binding kinetics measurements (Surface Plasmon Resonance) on wt-BTK; details: for Tau (h) wt-BTK (Act): target residence time, SPR; for Kd: binding affinity by Surface Plasmon Resonance (SPR)
# Protocol: (§1) Binding kinetics measurements on wt-BTK, BTK […], BTK […], BTK […] and BTK […] (Surface Plasmon Resonance) Streptavidin-coated chips (Cat. No. BR100531), disposables and maintenance kits for Biacore were purchased from Cytiva (Eindhoven, The Netherlands). […] Remaining streptavidin was blocked with biocytin. Immobilization was performed at 4° C. Subsequent assay steps were conducted at 22° C. After changing buffer to Biacore buffer with 1% (v/v) dimethylsulfoxide (DMSO), a pre-run was performed for a period of at least 30 min at a flow rate of 30 μl/min to obtain a stable surface. The kinetic constants of the compounds were determined with single cycle kinetics with five consecutive injections with an increasing compound concentration with ranges of 3.16-316 nM. […] To circumvent problems of mass transport limitation, a flow rate of 30 μl/min was used. A blank run with the same conditions was performed before the compound was injected. The SPR sensorgrams were analyzed with Biacore Evaluation Software by using a method of double referencing. First the reference channel was subtracted from the channel containing immobilized protein. Subsequently, the reference curve obtained with buffer injections was subtracted. […] Compounds that bound according to an induced fit model were fitted with a two-state reaction model. The kinetic constants (ka, […], KD) of duplicates were geometrically averaged. […] Target residence for an induced fit model was calculated as described (Tummino and Copeland, 2008).
# BTK T474I = BTK T474I (Homo sapiens (Human), UniProt Q06187, T474I); assay: Binding kinetics measurements (Surface Plasmon Resonance) on BTK T474I; details: for Tau (h) BTK T474I (Act): target residence time, SPR; for Kd: binding affinity by Surface Plasmon Resonance (SPR)
# Protocol: as §1
# [3] = biological target: full-length wt-BTK enzyme (Homo sapiens (Human), UniProt Q06187); assay: Biochemical kinase assay wt-BTK (IMAP)
# Procedure, shortened: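 IMAP fluorescence polarization assay: 1.2 nM enzyme pre-incubated 1 h with compound at room temperature, then 50 nM fluorescein-labeled MBP-derived peptide and 4 μM ATP added. Reaction ran 2 h at room temperature in the dark before quenching with IMAP binding solution.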
# [4] = biological target: full-length BTK C481S enzyme (Homo sapiens (Human), UniProt Q06187, C481S); assay: Biochemical kinase assay BTK C481S (IMAP)
# Procedure, shortened: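 Full-length BTK C481S (1.2 nM) was pre-incubated with compound for 1 h at room temperature in the dark, then reacted with fluorescein-labelled MBP-derived peptide (50 nM) and ATP (7 μM) for 2 h. Reactions were quenched with IMAP binding solution, and IC50 values were derived from fluorescence polarization.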
# BTK T474I, sequence (Q06187 whole entry T474I): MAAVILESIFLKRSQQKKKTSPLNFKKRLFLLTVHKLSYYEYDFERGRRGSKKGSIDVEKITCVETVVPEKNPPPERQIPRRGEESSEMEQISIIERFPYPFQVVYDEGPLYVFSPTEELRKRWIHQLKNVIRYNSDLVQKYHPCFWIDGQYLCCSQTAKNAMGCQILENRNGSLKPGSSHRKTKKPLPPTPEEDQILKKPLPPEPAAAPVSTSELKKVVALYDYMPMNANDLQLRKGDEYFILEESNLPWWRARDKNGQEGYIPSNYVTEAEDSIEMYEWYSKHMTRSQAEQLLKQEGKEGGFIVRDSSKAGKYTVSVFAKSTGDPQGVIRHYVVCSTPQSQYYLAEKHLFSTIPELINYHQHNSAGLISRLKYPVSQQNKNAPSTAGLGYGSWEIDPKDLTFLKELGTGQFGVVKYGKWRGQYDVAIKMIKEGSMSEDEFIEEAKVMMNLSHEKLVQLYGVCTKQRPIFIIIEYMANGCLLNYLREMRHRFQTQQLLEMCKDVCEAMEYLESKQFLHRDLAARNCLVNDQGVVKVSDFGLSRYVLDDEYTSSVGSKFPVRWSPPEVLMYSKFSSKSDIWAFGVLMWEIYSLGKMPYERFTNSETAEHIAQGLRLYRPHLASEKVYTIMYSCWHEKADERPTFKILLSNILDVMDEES
# full-length BTK C481S enzyme, sequence (Q06187 whole entry C481S): as the sequence (Q06187 whole entry T474I) above, with I474T, C481S counted along it
# wt-BTK, sequence (Q06187 whole entry): as the sequence (Q06187 whole entry T474I) above, with I474T counted along it
# full-length wt-BTK enzyme, sequence (Q06187 whole entry): as the sequence (Q06187 whole entry T474I) above, with I474T counted along it
IC50 [1],IC50 [2],Tau (h) wt-BTK (Act) (wt-BTK),Tau (h) BTK T474I (Act) (BTK T474I),IC50 [3],IC50 [4],Kd (wt-BTK),Kd (BTK T474I),SMILES,IC50 (REC-1 T474I cell lines)
< 100 nM,< 100 nM,10.79 h,1.26 h,< 5 nM,< 5 nM,–,–,N#Cc1ccnc(NC(=O)c2ccc(-c3nn4c5c(cnc(N)c35)/C=C/CCOCCC(=O)N[C@@H]3CC[C@@H]4C3)cc2)c1 [Example 185],< 100 nM
< 100 nM,< 100 nM,5.73 h,4.17 h,< 5 nM,< 5 nM,–,–,Nc1ncc2n3c(nc(-c4ccc(C(=O)Nc5cc(C(F)(F)F)ccn5)cc4)c13)[C@@H]1CC[C@H](C1)NC(=O)CCCCC/C=C/2 [Example 203],< 100 nM
< 100 nM,< 100 nM,9.76 h,1.18 h,< 5 nM,< 5 nM,–,–,Cc1ccnc(NC(=O)c2ccc(-c3nc4n5c(cnc(N)c35)/C=C/CCOCCC(=O)N[C@@H]3CC[C@@H]4C3)cc2)c1 [Example 215],< 100 nM
< 100 nM,< 100 nM,>24 h,0.93 h,< 5 nM,< 5 nM,–,–,N#Cc1ccnc(NC(=O)c2ccc(-c3nn4c5c(cnc(N)c35)/C=C/CCN3CC[C@H]3C(=O)N[C@@H]3CC[C@@H]4C3)cc2)c1 [Example 186],< 100 nM
< 100 nM,< 100 nM,3.61 h,1.40 h,< 5 nM,< 5 nM,< 5 nM,< 2 nM,Nc1ncc2c3c1c(-c1ccc(C(=O)Nc4cc(C(F)(F)F)ccn4)cc1)nn3[C@@H]1COC[C@H](C1)NC(=O)CCOC/C=C/2 [Example 192],< 100 nM
< 100 nM,< 100 nM,1.22 h,0.68 h,< 5 nM,< 5 nM,< 5 nM,< 2 nM,COc1ccc(F)cc1C(=O)NCc1ccc(-c2nc3n4c(cnc(N)c24)/C=C/CCOCCC(=O)N[C@@H]2CCC[C@@H]3C2)cc1 [Example 210],< 100 nM
1000 to 10000 nM,< 100 nM,4.17 h,1.56 h,< 5 nM,< 5 nM,< 5 nM,–,Nc1ncc2c3c1c(-c1ccc(C(=O)Nc4cc(F)ccn4)cc1)nn3[C@@H]1CCC[C@H](C1)NC(=O)CCOC/C=C/2 [Example 189],500 to 10000 nM
< 100 nM,< 100 nM,2.78 h,0.70 h,< 5 nM,< 5 nM,–,–,COc1ccnc(NC(=O)c2ccc(-c3nc4n5c(cnc(N)c35)/C=C/CCOCCC(=O)N[C@@H]3CC[C@@H]4C3)cc2)c1 [Example 217],< 100 nM
< 100 nM,< 100 nM,3.73 h,0.73 h,< 5 nM,< 5 nM,< 5 nM,–,COc1cc(-c2nn3c4c(cnc(N)c24)/C=C/CCOCCC(=O)N[C@@H]2CCC[C@@H]3C2)ccc1C(=O)Nc1cc(C(F)(F)F)ccn1 [Example 195],< 100 nM
< 100 nM,< 100 nM,–,–,< 5 nM,< 5 nM,< 5 nM,10 to 50 nM and < 5 nM,COc1ccc(F)cc1C(=O)NCc1ccc(-c2nc3n4c(cnc(N)c24)/C=C/COCCC(=O)N[C@@H]2CCC[C@@H]3C2)cc1 [Example 211],500 to 10000 nM
< 100 nM,< 100 nM,4.79 h,1.28 h,< 5 nM,< 5 nM,–,–,Cn1nc(NC(=O)c2ccc(-c3nc4n5c(cnc(N)c35)/C=C/CCOCCC(=O)N[C@@H]3CC[C@@H]4C3)cc2)cc1C(F)(F)F [Example 216],< 100 nM
